The results in this text go back to patent US20090291064A1 (priority 2008, published 2009).

Read-outs that look alike come from different tables or passages of the source.

One series relates to CYP1A1. The following applies: pig. As to the method:
(§1) Several CYP450 enzymatic activities were investigated in PICM-19H cells to determine the presence and inducible nature of major CYP450 isoforms. […] Cells were washed with PBS and appropriate inducer medium was added for 48 h prior to experimentation.
(§2) CYP450 activity was assessed in T25 cultures of PICM-19H cells that were grown for 3 wk post-passage. T25 cultures of APH or HepG2 C3A cells were tested after 3 d of primary culture and at 1 wk post-passage or near confluency, respectively. […] After the initial induction, cells were washed and given a non-fluorescent substrate for CYP1A1, CYP1A2, CYP2, or CYP3A (7-ERF, 7-MRF, MFC, and BFC, respectively). […] Medium samples were collected, centrifuged to remove cell debris (14,000×g, 2 min) and frozen at −80° C. until analyzed. […] Briefly, samples were incubated at 37° C. with or without β-glucuronidase/arylsulphatase (15 Fishman/120 Roy units/ml, Roche Applied Sciences) in pH 4.5 acetate buffer for 2 h to release any fluorescent reaction product that had been conjugated via sulfation or glucurondation phase II conjugation reactions. Standard curves contained resorufin or 7-HFC were treated identically to the experimental medium samples. Fluorescence was determined in an HTS 7000 plate reader; excitation/emission filter pairs were 530/590 and 410/510 for resorufin and 7-HFC, respectively. To determine relative conjugation activity, fluorescence was also determined directly without incubating first in β-glucuronidase/arylsulphatase. Since conjugated forms of resorufin and 7-HFC are non-fluorescent, the difference between the direct and indirect fluorescence measurements represents the amount of product which had been modified by conjugating enzymes.

A further series has as its system CYP 1A2. As to the method:
as §1, §2

For the next series, the system named is CYP2. As for the experimental part: as §1, §2
A further series in a line: in vitro. The following applies: pig, LC50, WST-1 viability.

For the compound `Cc1ccc2cc3c(ccc4ccccc43)c3c2c1CC3` [3-MC, 3-methylcholanthrene], in the series with CYP3A (PICM-19H cells, 48 h with 5 μM 3-MC), the “induction of BFCD activity” value is 5.8 fold. In the series with CYP1A1, the “increase in EROD activity” value is listed as 198 fold. Moreover, the “induction of MROD activity” value with CYP 1A2 (PICM-19H cells, 48 h with 5 μM 3-MC, vs non-induced) came out at 5.5 fold. Besides, in the series with CYP2 (PICM-19H cells, 48 h with 1 mM PHB, 50 μM Rif or 5 μM 3-MC), the “MFCD activity induction (in words)” value is recorded as “equally induced”.

A word on the CC50: it is the concentration giving 50% cytotoxicity. Higher therefore signals lower toxicity to the cells. In the case of `CC(=O)Nc1ccc(O)cc1` [acetaminophen], the 50% cytotoxic concentration (CC50) in the series “in vitro” is 12.6 ± 0.75 mM; with PICM-19H cells (pig) it was roughly 13 mM. Moreover, the “toxicity in glutathione-depleted cells” value in the series on PICM-19H cells is “enhanced”.

For `CCC1(c2ccccc2)C(=O)NC(=O)NC1=O` [PHB, phenobarbital], the “increase in BFCD activity compared to non-induced controls” value in the series on CYP3A (pig) is on record as “approximately 50%”. Besides, the “increase in EROD activity” value in the series with CYP1A1 is 7 fold. Moreover, the “MROD activity (in words)” value in the series on CYP 1A2 is on record as “low”. In addition, the “MFCD activity induction (in words)” value against CYP2 is given as “equally induced”.
